Results as given in paper PMC6407917, “Identification of GSK3186899/DDD853651 as a Preclinical Development Candidate for the Treatment of Visceral Leishmaniasis” (Journal of Medicinal Chemistry, 2018).

Key:
Test in all cases: biochemical
Set-up in all cases: species or system HEK293/K-562/placenta mixed human extract; Kinobeads chemoproteomic competition binding, quantified by TMT LC-MS/MS, dose response up to 20 uM
AAK1 = AAK1 (Homo sapiens, UniProt Q2M2I8)
BRAF = BRAF (Homo sapiens, UniProt P15056)
Sequence of BRAF (P15056 whole entry): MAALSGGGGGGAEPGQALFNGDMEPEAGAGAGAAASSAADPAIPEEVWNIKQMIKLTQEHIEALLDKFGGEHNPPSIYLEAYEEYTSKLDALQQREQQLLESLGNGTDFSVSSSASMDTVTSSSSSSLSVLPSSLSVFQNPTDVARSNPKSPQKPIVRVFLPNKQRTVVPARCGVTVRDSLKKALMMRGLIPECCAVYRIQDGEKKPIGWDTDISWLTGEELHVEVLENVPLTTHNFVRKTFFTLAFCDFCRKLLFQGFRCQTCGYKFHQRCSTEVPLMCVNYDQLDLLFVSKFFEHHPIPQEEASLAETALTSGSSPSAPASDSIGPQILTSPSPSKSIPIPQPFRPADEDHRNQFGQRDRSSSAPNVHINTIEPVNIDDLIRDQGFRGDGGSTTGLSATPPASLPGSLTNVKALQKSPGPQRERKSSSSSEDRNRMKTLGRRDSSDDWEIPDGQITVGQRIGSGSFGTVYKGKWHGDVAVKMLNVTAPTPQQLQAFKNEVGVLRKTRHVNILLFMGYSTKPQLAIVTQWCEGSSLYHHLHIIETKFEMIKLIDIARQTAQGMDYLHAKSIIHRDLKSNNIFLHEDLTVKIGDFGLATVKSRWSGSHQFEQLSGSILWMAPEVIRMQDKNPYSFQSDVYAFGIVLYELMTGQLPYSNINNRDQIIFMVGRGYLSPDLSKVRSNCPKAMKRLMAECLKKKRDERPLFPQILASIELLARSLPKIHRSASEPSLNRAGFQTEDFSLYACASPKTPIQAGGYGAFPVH

BUB1 = BUB1 (Homo sapiens, UniProt O43683)
Sequence of BUB1 (O43683 whole entry): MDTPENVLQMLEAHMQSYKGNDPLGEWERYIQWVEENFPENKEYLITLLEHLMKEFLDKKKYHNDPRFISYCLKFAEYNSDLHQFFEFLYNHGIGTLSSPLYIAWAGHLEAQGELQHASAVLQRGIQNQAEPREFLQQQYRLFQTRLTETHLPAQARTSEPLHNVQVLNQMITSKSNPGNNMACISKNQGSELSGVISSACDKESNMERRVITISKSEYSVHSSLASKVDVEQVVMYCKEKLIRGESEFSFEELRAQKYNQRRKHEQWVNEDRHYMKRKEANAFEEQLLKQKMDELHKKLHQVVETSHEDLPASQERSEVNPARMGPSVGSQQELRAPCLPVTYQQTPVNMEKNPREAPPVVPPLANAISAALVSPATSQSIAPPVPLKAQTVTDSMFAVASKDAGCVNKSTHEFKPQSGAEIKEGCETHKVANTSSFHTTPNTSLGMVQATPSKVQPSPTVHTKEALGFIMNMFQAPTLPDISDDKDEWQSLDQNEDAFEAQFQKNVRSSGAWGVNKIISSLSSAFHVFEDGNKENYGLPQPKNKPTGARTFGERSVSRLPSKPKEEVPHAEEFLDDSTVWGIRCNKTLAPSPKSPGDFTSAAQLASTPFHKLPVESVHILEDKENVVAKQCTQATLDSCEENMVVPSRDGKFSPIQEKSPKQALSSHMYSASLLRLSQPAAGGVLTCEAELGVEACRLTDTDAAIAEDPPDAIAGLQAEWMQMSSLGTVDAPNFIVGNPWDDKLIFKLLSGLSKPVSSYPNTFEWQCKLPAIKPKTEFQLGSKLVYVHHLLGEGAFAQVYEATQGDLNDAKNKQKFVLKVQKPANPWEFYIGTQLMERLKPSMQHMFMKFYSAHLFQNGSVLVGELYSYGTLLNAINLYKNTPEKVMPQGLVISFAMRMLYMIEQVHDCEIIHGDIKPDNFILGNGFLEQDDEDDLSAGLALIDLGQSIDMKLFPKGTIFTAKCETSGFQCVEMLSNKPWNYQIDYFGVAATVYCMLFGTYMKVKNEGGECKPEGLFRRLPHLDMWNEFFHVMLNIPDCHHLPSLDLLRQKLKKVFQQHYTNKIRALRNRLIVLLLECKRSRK

CAMKK2 = CAMKK2 (Homo sapiens, UniProt Q96RR4)
Sequence of CAMKK2 (Q96RR4 whole entry): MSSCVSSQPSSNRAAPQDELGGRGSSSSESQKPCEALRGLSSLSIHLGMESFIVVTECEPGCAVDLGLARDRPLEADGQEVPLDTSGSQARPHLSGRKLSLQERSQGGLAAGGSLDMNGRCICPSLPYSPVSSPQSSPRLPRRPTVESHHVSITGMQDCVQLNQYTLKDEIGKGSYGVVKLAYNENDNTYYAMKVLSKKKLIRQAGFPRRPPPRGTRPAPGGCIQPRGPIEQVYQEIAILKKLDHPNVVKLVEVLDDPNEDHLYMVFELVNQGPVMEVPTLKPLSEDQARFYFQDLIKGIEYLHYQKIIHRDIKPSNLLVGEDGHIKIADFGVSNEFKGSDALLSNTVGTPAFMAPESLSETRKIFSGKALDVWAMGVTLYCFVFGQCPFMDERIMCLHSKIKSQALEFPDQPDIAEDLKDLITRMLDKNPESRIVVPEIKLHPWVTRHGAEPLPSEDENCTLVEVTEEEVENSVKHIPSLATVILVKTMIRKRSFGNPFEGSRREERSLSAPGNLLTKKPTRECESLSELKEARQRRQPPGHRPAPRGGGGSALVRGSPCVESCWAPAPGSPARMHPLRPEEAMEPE

CDC42BPG = CDC42BPG (Homo sapiens, UniProt Q6DT37)
CDK9 = CDK9 (Homo sapiens, UniProt P50750)
Sequence of CDK9 (P50750 whole entry): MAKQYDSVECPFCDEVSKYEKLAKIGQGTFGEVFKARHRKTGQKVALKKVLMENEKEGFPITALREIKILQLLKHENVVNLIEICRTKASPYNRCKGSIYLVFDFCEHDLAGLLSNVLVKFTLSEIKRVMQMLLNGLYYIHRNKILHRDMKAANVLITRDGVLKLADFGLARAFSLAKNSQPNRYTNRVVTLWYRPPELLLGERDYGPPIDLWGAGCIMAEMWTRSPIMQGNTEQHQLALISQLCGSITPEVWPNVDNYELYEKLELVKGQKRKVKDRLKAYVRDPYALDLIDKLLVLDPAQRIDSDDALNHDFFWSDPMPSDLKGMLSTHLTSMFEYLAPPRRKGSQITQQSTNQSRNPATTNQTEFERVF

FES = FES (Homo sapiens, UniProt P07332)
FYN = FYN (Homo sapiens, UniProt P06241)
Sequence of FYN (P06241 whole entry): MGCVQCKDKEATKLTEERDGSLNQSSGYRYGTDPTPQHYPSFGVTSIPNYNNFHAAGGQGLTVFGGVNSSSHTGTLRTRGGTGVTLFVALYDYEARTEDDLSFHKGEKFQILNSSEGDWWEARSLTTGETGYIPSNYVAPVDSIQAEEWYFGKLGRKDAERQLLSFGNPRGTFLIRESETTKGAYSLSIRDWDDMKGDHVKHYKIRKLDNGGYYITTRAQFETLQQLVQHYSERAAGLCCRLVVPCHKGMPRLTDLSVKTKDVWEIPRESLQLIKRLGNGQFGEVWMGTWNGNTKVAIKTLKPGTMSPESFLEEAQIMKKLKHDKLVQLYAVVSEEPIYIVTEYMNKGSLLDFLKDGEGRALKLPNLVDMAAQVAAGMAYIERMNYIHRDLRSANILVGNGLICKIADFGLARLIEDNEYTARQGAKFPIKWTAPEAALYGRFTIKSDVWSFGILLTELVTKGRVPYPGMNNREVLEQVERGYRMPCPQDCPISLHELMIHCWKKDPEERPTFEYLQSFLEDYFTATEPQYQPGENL

JAK2 = JAK2 (Homo sapiens, UniProt O60674)
MAP2K5 = MAP2K5 (Homo sapiens, UniProt Q13163)
MAP3K9 = MAP3K9 (Homo sapiens, UniProt P80192)
MARK3 = MARK3 (Homo sapiens, UniProt P27448)
PRKCD = PRKCD (Homo sapiens, UniProt Q05655)
PRKX = PRKX (Homo sapiens, UniProt P51817)
RPS6KA2 = RPS6KA2 (Homo sapiens, UniProt Q15349)
RPS6KA6 = RPS6KA6 (Homo sapiens, UniProt Q9UK32)
SLK = SLK (Homo sapiens, UniProt Q9H2G2)
STK38 = STK38 (Homo sapiens, UniProt Q15208)
Sequence of STK38 (Q15208 whole entry): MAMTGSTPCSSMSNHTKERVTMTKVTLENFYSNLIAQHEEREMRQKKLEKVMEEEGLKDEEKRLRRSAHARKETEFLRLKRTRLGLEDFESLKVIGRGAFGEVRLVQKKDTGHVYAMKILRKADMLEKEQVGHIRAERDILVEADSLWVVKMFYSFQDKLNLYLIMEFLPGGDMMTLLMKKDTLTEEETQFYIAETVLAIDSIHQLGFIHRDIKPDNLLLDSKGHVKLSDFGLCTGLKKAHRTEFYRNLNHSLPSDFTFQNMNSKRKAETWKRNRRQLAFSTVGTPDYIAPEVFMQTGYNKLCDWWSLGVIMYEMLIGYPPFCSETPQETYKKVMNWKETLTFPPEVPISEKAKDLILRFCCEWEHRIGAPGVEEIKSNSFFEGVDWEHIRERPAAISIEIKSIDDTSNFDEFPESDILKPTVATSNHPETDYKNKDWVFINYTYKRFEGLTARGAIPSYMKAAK

SYK = SYK (Homo sapiens, UniProt P43405)
TAOK1 = TAOK1 (Homo sapiens, UniProt Q7L7X3)
TEK = TEK (Homo sapiens, UniProt Q02763)
Sequence of TEK (Q02763 whole entry): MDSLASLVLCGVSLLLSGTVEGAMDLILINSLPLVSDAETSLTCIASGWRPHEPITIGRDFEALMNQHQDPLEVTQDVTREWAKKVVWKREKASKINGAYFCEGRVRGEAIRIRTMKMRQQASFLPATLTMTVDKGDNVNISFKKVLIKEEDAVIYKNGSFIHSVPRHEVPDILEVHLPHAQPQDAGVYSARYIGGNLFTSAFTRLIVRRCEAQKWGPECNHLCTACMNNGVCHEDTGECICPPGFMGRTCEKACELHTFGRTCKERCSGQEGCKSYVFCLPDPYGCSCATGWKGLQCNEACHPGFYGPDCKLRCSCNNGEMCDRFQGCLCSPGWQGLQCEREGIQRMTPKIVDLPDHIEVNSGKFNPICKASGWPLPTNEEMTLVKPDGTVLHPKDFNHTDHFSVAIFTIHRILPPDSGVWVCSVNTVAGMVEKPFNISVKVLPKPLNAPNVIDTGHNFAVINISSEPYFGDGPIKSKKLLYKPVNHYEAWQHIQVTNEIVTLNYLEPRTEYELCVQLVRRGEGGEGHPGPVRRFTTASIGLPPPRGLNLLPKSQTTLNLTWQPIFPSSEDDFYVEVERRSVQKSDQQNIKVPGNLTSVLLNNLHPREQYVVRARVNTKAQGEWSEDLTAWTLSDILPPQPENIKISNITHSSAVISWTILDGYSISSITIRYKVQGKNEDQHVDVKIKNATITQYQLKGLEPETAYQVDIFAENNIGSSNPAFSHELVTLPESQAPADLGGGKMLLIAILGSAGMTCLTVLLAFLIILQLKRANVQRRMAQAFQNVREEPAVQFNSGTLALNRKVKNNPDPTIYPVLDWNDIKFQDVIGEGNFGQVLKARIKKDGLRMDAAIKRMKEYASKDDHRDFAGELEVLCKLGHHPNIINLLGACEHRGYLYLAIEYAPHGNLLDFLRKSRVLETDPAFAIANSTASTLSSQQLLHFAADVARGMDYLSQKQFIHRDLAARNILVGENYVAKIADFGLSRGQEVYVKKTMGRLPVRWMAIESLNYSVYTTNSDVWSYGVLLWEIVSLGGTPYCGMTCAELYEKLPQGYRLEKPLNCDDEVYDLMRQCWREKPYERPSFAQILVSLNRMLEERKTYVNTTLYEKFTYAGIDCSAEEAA

Measured: IC50

COc1nc(N[C@H]2CC[C@H](NS(=O)(=O)CC(C)C)CC2)nc2[nH]nc(N3CCOC[C@H]3C)c12 [compound 39, N-(trans-4-((4-Methoxy-3-((R)-3-methylmorpholino)-1H-pyrazolo[3,4-d]pyrimidin-6-yl)amino)cyclohexyl)-2-methylpropane-1-sulfonamide]
≥ 20 µM: all assays above
